In article PMC8346996, “Antiradical Properties of N-Oxide Surfactants—Two in One” (International Journal of Molecular Sciences, 2021):
In brackets after ≈: the same amount, converted by molar mass. Where two headings read alike, the source gives them in different places. Marks after values point to notes of the source that are not given here.

Assays:
[1] = system: normal human keratinocytes (HaCaT); assay: MTT cell viability assay, HaCaT; assay type: cell-based; details: Homo sapiens, HaCaT, MTT
Description: (§1) HaCaT (immortalized human keratinocytes from histologically normal skin) cell line was obtained from the CLS Cell Lines Service GmbH (Eppelheim, Germany). HGFs (human gingival fibroblasts) derive from primary cell culture. The cells were isolated according to the procedure described by Saczko et al. and patented by Saczko et al.. Cells were grown in plastic cell culture flasks in Dulbecco’s Modified Eagle’s Medium, supplemented with fetal bovine serum (FBS, Lonza, Morrisville, NC, USA), with 100 IU/mL penicillin, 50 mg streptomycin, and 125 μg amphotericin B (Sigma). The cells were maintained in a humidified atmosphere at 37 °C and 5% CO2. The cells were regularly maintained by systematic passaging. For experimental purposes, the cells were removed by trypsinization (0.25% Trypsin-EDTA, Sigma).
(§2) MTT (Sigma) test was used to determine the viability of HaCaT and HGFs cells. The MTT assay was used to test mitochondrial metabolic functioning. Cells were seeded on flat bottom 96-well tissue culture plates at a density of 10^4 cells/well and allowed to grow in a CO2 incubator at 37 °C overnight. In the case of these studies, the culture medium was removed, surfactant solutions were added, and the cells were exposed for 24 and 48 h to compounds at doses ranging from 50 to 2000 μg/mL. After incubation, MTT assay was applied according to the manufacturer protocol. The absorbance was measured at 570 nm using a multiwell plate reader (EnSpire Multimode Reader, Perkin Elmer). Each experiment was performed in a few independent repetitions. Mean values and standard deviations of all results were calculated. The final results were expressed as the percentage of mitochondrial function relative to untreated control cells.

[2] = MTT cell viability assay, HaCaT; assay type: cell-based, human; details: human, HaCaT cells (immortalized human keratinocytes), evaluated for CMC
Description: as §1, §2

[3] = Radical scavenging monitored by EPR spectroscopy, GO•; details: after 60 min of reaction; C/CMC = 100
Description: (§3) We began with an attempt to determine if the N-oxide surfactants can participate in the radical scavenging process when micelles are well-formed. Thus, the reaction mixtures containing a surfactant at C/CMC = 100, which is a typical concentration found in formulations, and GO• or DPPH• at 2 mM were prepared along with the control samples and monitored over time (solutions of DPPH• and GO• without surfactants).
(§4) The scavenging capacity of the surfactants was judged quantitatively by measuring the percentage of remaining GO• and DPPH• after a fixed reaction time. The relative concentration of GO• and DPPH• was calculated from Equation (1):(1) remaining radical%=It/I0×100% where I0 and It correspond to the EPR signal integral intensity of a radical in the absence and presence of the N-oxide surfactants after a fixed time, respectively.
(§5) The antiradical properties were studied by EPR using a Bruker ELEXYS E500 spectrometer equipped with an NMR gaussmeter and frequency counter. A microwave power of 10 mW, a modulation frequency of 100 kHz, a modulation amplitude of 1 G, a time constant of 82 ms, and a conversion time of 164 ms were adopted. The antiradical properties were evaluated against two model radicals: 2,2-diphenyl-1-picrylhydrazyl (DPPH•) and galvinoxyl (GO•). […]

[4] = design: method as in PMID 23098238; details: cited from earlier work
[5] = Radical scavenging monitored by EPR spectroscopy, DPPH•; details: after 60 min of reaction; C/CMC = 100
Description: as §3, §4, §5

[6] = DPPH• scavenging kinetics by UV-vis, pseudo-first-order conditions
Description: After confirming that the absorption maximum at 517 nm of DPPH• is outside the surfactant’s absorption range, the rate of the DPPH•-scavenging reaction of the N-oxides was measured by monitoring the decrease in absorbance of this maximum. To ensure that the decay of DPPH• obeyed pseudo-first-order kinetics, the concentration of surfactants was at least a 54-fold excess of the DPPH• concentration. As explained in SI, the calculated pseudo-first-order rate constants, kobs, increased linearly with the concentration of Cn(DAPANO)2 and CnPDA (shown in SI). The second-order rate constants k2 for the reaction between the N-oxides and DPPH• were determined from the slopes of the linear plots of kobs vs. the concentration of the surfactants and are given in Figure 6.
The measurements were done under deaerated conditions at 298 K in ethanol solutions (2 mL in a 10 mm quartz cuvette) containing DPPH^• (C = 2.2 × 10^−4 M) and a surfactant at each of five different concentrations, namely C1 = 0.12 M, C2 = 0.09 M, C3 = 0.06 M, C4 = 0.03 M, and C5 = 0.012 M. UV−vis spectral changes associated with the undergoing reaction were monitored at 516 nm, using a Varian Cary 50Conc UV−visible Spectrophotometer. The following equations of the calibration curve were used to calculate DPPH^• concentrations in the reaction system: Abs = 4.0189 × C[mM] + 0.00813 (R^2 = 0.9998). The rate of DPPH^• scavenging reaction was determined using pseudo-first-order kinetics (the concentration of CnPDA or Cn(DAPANO)2 was maintained at more than 54-fold excess of the radical concentration); further details are given as Supporting Information.

[7] = design: method as in PMID 23098238; details: cited from earlier work; remark: listed apart in the source
[8] = system: primary fibroblasts (HGFs); assay: MTT cell viability assay, HGFs; assay type: cell-based, human; details: Homo sapiens, Fibroblast, MTT
Description: as §1, §2

[9] = MTT cell viability assay, HGFs; assay type: cell-based, human; details: human, primary human gingival fibroblasts (HGFs), evaluated for CMC
Description: as §1, §2

`CCCCCCCCCCCC(=O)N(CCC[N+](C)(C)[O-])CCC[N+](C)(C)[O-]` [C12(DAPANO)2] showed an IC50 ([1]; 24 h incubation, read-out: IC50 HaCaT 24 h) of 95 mg/L (≈ 237 µM), an IC50 ([1]; 48 h incubation, read-out: IC50 HaCaT 48 h) of 94 mg/L (≈ 234 µM) and a viability at 24 h ([2]; 24 h) of 9.2%. The viability at 48 h ([2]; 48 h) was 16.4%, the “reduced the number of GO• by” value [3] was 88% and the “RH DLS” value [4] was 2.04 ^a nm. For the same compound, the “reduced the number of DPPH• by” value [5] was 86%, the “second-order rate constant k2 for the reaction with DPPH•” value ([6]; ethanol, 298 K, deaerated, DPPH• 2.2 × 10^−4 M, surfactant 0.012-0.12 M) was 0.00108 M⁻¹ s⁻¹ and the “k2 higher in comparison with the CnPDA homolog” value ([6]; reaction with DPPH•) was 19%. For the same compound, the CMC [7] was 5.5·10^−3 a M, the IC50 ([8]; 24 h incubation, read-out: IC50 HGFs 24 h) was 27.9 mg/L (≈ 69.5 µM) and the IC50 ([8]; 48 h incubation, read-out: IC50 HGFs 48 h) was 1.2 mg/L (≈ 2.99 µM). It also gave a viability at 24 h ([9]; 24 h, read-out: Viability 24 h HGF’s) of 17.1% and a viability at 48 h ([9]; 48 h, read-out: Viability 48 h HGF’s) of 10.8%.
